Source: US20210205638A1, “PARATHYROID HORMONE AND REGENERATION OF DEGENERATIVE DISCS DISEASE” (THE JOHNS HOPKINS UNIVERSITY, priority 2017, published 2021)

System: 18-month-old mice
Assay: iPTH in aged mice: safranin O staining and immunostaining of IVD sections
Type: in vivo, mouse
Procedure: For immunocytochemical staining, we incubated GFP labeled NP cells co-stained with primary antibody to rabbit PTH1R PRB-635P (Covance, 1:100) for 1 h and subsequently stained with secondary antibodies conjugated with fluorescence at room temperature. At the time of euthanasia, we dissected and fixed the lumbar vertebral spine in 10% buffered formalin for 48 h, decalcified them in 10% EDTA (pH 7.4) for 14-21 days and embedded them in paraffin or optimal cutting temperature (OCT) compound (Sakura Finetek). Fourmicrometer-thick coronal-oriented sections of the L1-L6 spine were processed for safranin O and fast green staining. Sections for immunostaining was performed using a standard protocol and incubated with primary antibodies to rabbit ACAN (Abcam, 1:100), CCN2 (Abcam, 1:100), integrin β8 (Abcam, 1:200), pCREB (Abcam, 1:100) and PTH1R PRB-635P (Covance, 1:100), mouse pSmad2/3 (Santa Cruz, 1:100), integrin αvβ6 (Millipore, 1:100), integrin αvβ3 (Bioss, 1:100,), integrin αvβ5 (Bioss, 1:100) at 4° C. overnight. For immunohistochemical staining, a horse radish peroxidase-streptavidin detection system (Dako) was subsequently used to detect the immunoactivity, followed by counterstaining with hematoxylin (Sigma-Aldrich). For immunofluorescent assay, the slides were incubated with secondary antibodies conjugated with fluorescence at room temperature for 1 h while avoiding light. We used isotype-matched controls, such as polyclonal rabbit IgG (R&D Systems, AB-105-C) under the same concentrations and conditions as negative controls. We micro photographed sections to perform histomorphometric measurements on the entire area of the L3-L4 of the spine (Olympus DP71).
Quantitative histomorphometric analysis was conducted in a blinded fashion with Image-Pro Plus Software version 6.0 (Media Cybernetics Inc). IVD histological score were obtained as previously described67. Five randomly selected sections per mice in each group at L3-L4 level were chosen for quantitative histomorphometric analysis. The percentage of pSmad2/3 and pCREB positive cells was obtained by counting the number of positive staining cells to the number of total cells in the NP region. The percentage area of CCN2 and ACAN positive staining was calculated by measuring the positive area to the whole area of the L3-L4 in each group.

Structure (SMILES): CC[C@H](C)[C@H](NC(=O)[C@H](CCC(=O)O)NC(=O)[C@H](CO)NC(=O)[C@@H](NC(=O)[C@@H](N)CO)C(C)C)C(=O)N[C@@H](CCC(N)=O)C(=O)N[C@@H](CC(C)C)C(=O)N[C@@H](CCSC)C(=O)N[C@@H](Cc1cnc[nH]1)C(=O)N[C@@H](CC(N)=O)C(=O)N[C@@H](CC(C)C)C(=O)NCC(=O)N[C@@H](CCCCN)C(=O)N[C@@H](Cc1cnc[nH]1)C(=O)N[C@@H](CC(C)C)C(=O)N[C@@H](CC(N)=O)C(=O)N[C@@H](CO)C(=O)N[C@@H](CCSC)C(=O)N[C@@H](CCC(=O)O)C(=O)N[C@@H](CCCN=C(N)N)C(=O)N[C@H](C(=O)N[C@@H](CCC(=O)O)C(=O)N[C@@H](Cc1c[nH]c2ccccc12)C(=O)N[C@@H](CC(C)C)C(=O)N[C@@H](CCCN=C(N)N)C(=O)N[C@@H](CCCCN)C(=O)N[C@@H](CCCCN)C(=O)N[C@@H](CC(C)C)C(=O)N[C@@H](CCC(N)=O)C(=O)N[C@@H](CC(=O)O)C(=O)N[C@H](C(=O)N[C@@H](Cc1cnc[nH]1)C(=O)N[C@@H](CC(N)=O)C(=O)N[C@@H](Cc1ccccc1)C(=O)O)C(C)C)C(C)C [PTH (1-34), teriparatide]
- IVD score: decrease
- level of CCN2+ (immunostaining): increased
- level of aggrecan (immunostaining): increased
- number of pSmad2/3+ NP cells (immunostaining): increased
- number of NP cells (safranin O): significantly increased
